This is an account of results in patent publication US20240228555A9, “ANTIMICROBIAL PEPTIDOMIMETICS” (Basilea Pharmaceutica International AG, Allschwil, priority 2020, published 2024).

Where a SMILES comes first, the peptide text is derived from it.

Series [1] relates to Escherichia coli ATCC 25922. As to conditions: ATCC 25922. Summed up:
(§1)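 First, bacterial colonies are suspended in saline and adjusted to 0.5 McFarland. Next, the suspension is diluted into cation-adjusted Mueller-Hinton II broth (approx. 5×10^5 CFU/mL). Finally, it is added to two-fold serially diluted peptide, with polysorbate 80 at 0.002% final.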

In series [2] the test system is Klebsiella pneumoniae SSI3010. To be noted: SSI3010. Summed up:
as §1

The subject of series [3] is Escherichia coli MCR-1 Af 45. As to conditions: Mueller-Hinton broth II, no visible growth after 18-20 hours at 35° C. Summed up:
as §1

Series [4] has as its system human red blood cells (hRBC). The class given is cell-based. As to conditions: red cells of human, 1 h, 0.2 g/L. The essentials:
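Percent lysis was derived from supernatant absorbance at 540 nm relative to full lysis by 2.5% Triton X-100 (PBS defines 0%). Compounds, 200 μg/mL, were exposed for 1 h at 37° C to a 20% (v/v) suspension of washed human red cells.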

With `CC[C@H](C)[C@H](NC(=O)[C@@H]1C[C@@H](N)CN1C(=O)[C@@H](N)C(C)C)C(=O)N[C@H](C(=O)N[C@@H](Cc1ccc(O)cc1)C(=O)N[C@@H]1C(=O)N[C@@H](CC(N)=O)C(=O)N[C@@H](CCCNC(=N)N)C(=O)N[C@@H](CCN)C(=O)N[C@@H]([C@@H](C)O)C(=O)N[C@H](CCN)C(=O)N[C@@H](CCCCN)C(=O)N[C@H](C(=O)N[C@@H](CO)C(=O)N[C@@H](CCCNC(=N)N)C(=O)N[C@@H](Cc2ccc(O)cc2)C(=O)O)CSSC1(C)C)[C@@H](C)O` [Example 110, Val-Pro((4R)NH2)-Ile-Thr-Tyr-Pen-Asn-Arg-Dab-Thr-^DDab-Lys-Cys-Ser-Arg-Tyr] (HELM PEPTIDE1{V.[N[C@@H]1C[C@@H](C(=O)[*:2])N([*:1])C1].I.T.Y.[Pen].N.R.[Dab].T.[NCC[C@@H](N[*:1])C(=O)[*:2]].K.C.S.R.Y}$PEPTIDE1,PEPTIDE1,6:R3-13:R3$$$V2.0), in series [1], the “Escherichia coli ATCC 25922 MIC” value was found to be 0.5 µg/mL. For the same compound, the “Klebsiella pneumoniae SSI3010 MIC” value in series [2] was 0.5 µg/mL. The “Escherichia coli MCR-1 Af 45 MIC” value in series [3] came out at 0.125 µg/mL. Moreover, the “Hemolysis at 0.2 g/L” value in series [4] is given as less than 1%.

Turning to `CC[C@H](C)[C@H](NC(=O)[C@@H](NC(=O)[C@@H]1C[C@@H](O)CN1C(=O)[C@@H](N)C(C)C)[C@@H](C)CC)C(=O)N[C@@H](Cc1ccc(O)cc1)C(=O)N[C@@H]1C(=O)N[C@@H](CC(N)=O)C(=O)N[C@@H](CCCNC(=N)N)C(=O)N[C@@H](CCN)C(=O)N[C@@H]([C@@H](C)O)C(=O)N[C@H](CCN)C(=O)N[C@@H](CCCCN)C(=O)N[C@H](C(=O)N[C@@H](CCN)C(=O)N[C@H](C(=O)N[C@@H](Cc2ccc(O)cc2)C(=O)O)[C@@H](C)O)CSSC1(C)C` [Example 111, Val-Hyp-Ile-Ile-Tyr-Pen-Asn-Arg-Dab-Thr-^DDab-Lys-Cys-Dab-Thr-Tyr] (HELM PEPTIDE1{V.[Hyp].I.I.Y.[Pen].N.R.[Dab].T.[NCC[C@@H](N[*:1])C(=O)[*:2]].K.C.[Dab].T.Y}$PEPTIDE1,PEPTIDE1,6:R3-13:R3$$$V2.0), the “Escherichia coli ATCC 25922 MIC” value in series [1] was determined as 0.25 µg/mL. In addition, the “Klebsiella pneumoniae SSI3010 MIC” value in series [2] is 0.5 µg/mL. Moreover, the “Escherichia coli MCR-1 Af 45 MIC” value in series [3] came to 0.125 µg/mL. The “Hemolysis at 0.2 g/L” value in series [4] was less than 1%.

Regarding `CC[C@H](C)[C@H](NC(=O)[C@@H](NC(=O)[C@@H]1C[C@@H](O)CN1C(=O)[C@@H](N)C(C)C)[C@@H](C)CC)C(=O)N[C@@H](Cc1ccc(O)cc1)C(=O)N[C@@H]1C(=O)N[C@@H](CC(N)=O)C(=O)N[C@@H](CCCNC(=N)N)C(=O)N[C@@H](CCN)C(=O)N[C@@H](CO)C(=O)N[C@H](CCN)C(=O)N[C@@H](CCCCN)C(=O)N[C@H](C(=O)N[C@@H](CCN)C(=O)N[C@H](C(=O)N[C@@H](Cc2ccc(O)cc2)C(=O)O)[C@@H](C)O)CSSC1(C)C` [Example 112, Val-Hyp-Ile-Ile-Tyr-Pen-Asn-Arg-Dab-Ser-^DDab-Lys-Cys-Dab-Thr-Tyr] (HELM PEPTIDE1{V.[Hyp].I.I.Y.[Pen].N.R.[Dab].S.[NCC[C@@H](N[*:1])C(=O)[*:2]].K.C.[Dab].T.Y}$PEPTIDE1,PEPTIDE1,6:R3-13:R3$$$V2.0), the “Escherichia coli ATCC 25922 MIC” value in series [1] was 0.25 µg/mL. The “Klebsiella pneumoniae SSI3010 MIC” value in series [2] was determined as 0.25 µg/mL. Also, the “Escherichia coli MCR-1 Af 45 MIC” value in series [3] is 0.0625 µg/mL. Further, the “Hemolysis at 0.2 g/L” value in series [4] is listed as less than 1%.

As to `CC[C@H](C)[C@H](NC(=O)[C@@H]1C[C@@H](O)CN1C(=O)[C@@H](N)C(C)C)C(=O)N[C@@H](CCN)C(=O)N[C@@H](Cc1ccc(O)cc1)C(=O)N[C@@H]1C(=O)N[C@@H](CC(N)=O)C(=O)N[C@@H](CCCNC(=N)N)C(=O)N[C@@H](CCN)C(=O)N[C@@H]([C@@H](C)O)C(=O)N[C@H](CCN)C(=O)N[C@@H](CCCNC(N)=O)C(=O)N[C@H](C(=O)N[C@@H](CCN)C(=O)N[C@H](C(=O)N[C@@H](Cc2ccc(O)cc2)C(=O)O)[C@@H](C)O)CSSC1(C)C` [Example 113, Val-Hyp-Ile-Dab-Tyr-Pen-Asn-Arg-Dab-Thr-^DDab-Cit-Cys-Dab-Thr-Tyr] (HELM PEPTIDE1{V.[Hyp].I.[Dab].Y.[Pen].N.R.[Dab].T.[NCC[C@@H](N[*:1])C(=O)[*:2]].[Cit].C.[Dab].T.Y}$PEPTIDE1,PEPTIDE1,6:R3-13:R3$$$V2.0), the “Escherichia coli ATCC 25922 MIC” value in series [1] worked out at 0.125 µg/mL. Further, the “Klebsiella pneumoniae SSI3010 MIC” value in series [2] came to 0.25 µg/mL. Further, the “Escherichia coli MCR-1 Af 45 MIC” value in series [3] stood at 0.125 µg/mL. For the same compound, the “Hemolysis at 0.2 g/L” value in series [4] is listed as less than 1%.

Regarding `CC[C@H](C)[C@H](NC(=O)[C@@H](NC(=O)[C@@H]1C[C@@H](O)CN1C(=O)[C@@H](N)C(C)(C)C)[C@@H](C)CC)C(=O)N[C@@H](Cc1ccc(O)cc1)C(=O)N[C@@H]1C(=O)N[C@@H](CC(N)=O)C(=O)N[C@@H](CCCNC(=N)N)C(=O)N[C@@H](CCN)C(=O)N[C@@H]([C@@H](C)O)C(=O)N[C@H](CCN)C(=O)N[C@@H](CCCCN)C(=O)N[C@H](C(=O)N[C@@H](CCN)C(=O)N[C@@H](CCCNC(=N)N)C(=O)N[C@@H](Cc2ccc(O)cc2)C(=O)O)CSSC1(C)C` [Example 114, tBuGly-Hyp-Ile-Ile-Tyr-Pen-Asn-Arg-Dab-Thr-^DDab-Lys-Cys-Dab-Arg-Tyr] (HELM PEPTIDE1{[CC(C)(C)[C@H](N)C(=O)[*:2]].[Hyp].I.I.Y.[Pen].N.R.[Dab].T.[NCC[C@@H](N[*:1])C(=O)[*:2]].K.C.[Dab].R.Y}$PEPTIDE1,PEPTIDE1,6:R3-13:R3$$$V2.0), the “Escherichia coli ATCC 25922 MIC” value in series [1] was 0.125 µg/mL. Further, the “Klebsiella pneumoniae SSI3010 MIC” value in series [2] came to 0.5 µg/mL. Besides, the “Escherichia coli MCR-1 Af 45 MIC” value in series [3] was found to be 0.125 µg/mL. Also, the “Hemolysis at 0.2 g/L” value in series [4] is listed as less than 1%.

Consider `CC[C@H](C)[C@H](NC(=O)[C@@H](NC(=O)[C@@H]1C[C@@H](N)CN1C(=O)[C@@H](N)C(C)C)[C@@H](C)CC)C(=O)N[C@@H](Cc1ccc(O)cc1)C(=O)N[C@@H]1C(=O)N[C@@H](CC(N)=O)C(=O)N[C@@H](CCCNC(=N)N)C(=O)N[C@@H](CCN)C(=O)N[C@@H]([C@@H](C)O)C(=O)N[C@H](CCN)C(=O)N[C@@H]([C@@H](C)CC)C(=O)N[C@H](C(=O)N[C@@H](CCN)C(=O)N[C@H](C(=O)N[C@@H](Cc2ccc(O)cc2)C(=O)O)[C@@H](C)O)CSSC1(C)C` [Example 115, Val-Pro((4R)NH2)-Ile-Ile-Tyr-Pen-Asn-Arg-Dab-Thr-^DDab-Ile-Cys-Dab-Thr-Tyr] (HELM PEPTIDE1{V.[N[C@@H]1C[C@@H](C(=O)[*:2])N([*:1])C1].I.I.Y.[Pen].N.R.[Dab].T.[NCC[C@@H](N[*:1])C(=O)[*:2]].I.C.[Dab].T.Y}$PEPTIDE1,PEPTIDE1,6:R3-13:R3$$$V2.0), for which the “Escherichia coli ATCC 25922 MIC” value in series [1] was 0.5 µg/mL. The “Klebsiella pneumoniae SSI3010 MIC” value in series [2] is 0.5 µg/mL. In series [3], the “Escherichia coli MCR-1 Af 45 MIC” value stood at 0.125 µg/mL. Further, the “Hemolysis at 0.2 g/L” value in series [4] was less than 1%.

Take `CC[C@H](C)[C@H](NC(=O)[C@@H]1C[C@@H](N)CN1C(=O)[C@@H](N)C(C)C)C(=O)N[C@H](C(=O)N[C@@H](Cc1ccc(O)cc1)C(=O)N[C@@H]1C(=O)N[C@@H](CC(N)=O)C(=O)N[C@@H](CCCNC(=N)N)C(=O)N[C@@H](CCN)C(=O)N[C@@H]([C@@H](C)O)C(=O)N[C@H](CCN)C(=O)N[C@@H](CCCNC(N)=O)C(=O)N[C@H](C(=O)N[C@@H](CCN)C(=O)N[C@H](C(=O)N[C@@H](Cc2ccc(O)cc2)C(=O)O)[C@@H](C)O)CSSC1(C)C)[C@@H](C)O` [Example 116, Val-Pro((4R)NH2)-Ile-Thr-Tyr-Pen-Asn-Arg-Dab-Thr-^DDab-Cit-Cys-Dab-Thr-Tyr] (HELM PEPTIDE1{V.[N[C@@H]1C[C@@H](C(=O)[*:2])N([*:1])C1].I.T.Y.[Pen].N.R.[Dab].T.[NCC[C@@H](N[*:1])C(=O)[*:2]].[Cit].C.[Dab].T.Y}$PEPTIDE1,PEPTIDE1,6:R3-13:R3$$$V2.0): in series [1], the “Escherichia coli ATCC 25922 MIC” value worked out at 0.25 µg/mL. In addition, the “Klebsiella pneumoniae SSI3010 MIC” value in series [2] worked out at 0.5 µg/mL. Besides, the “Escherichia coli MCR-1 Af 45 MIC” value in series [3] is 0.25 µg/mL. Further, the “Hemolysis at 0.2 g/L” value in series [4] was less than 1%.

Take `CC[C@H](C)[C@@H]1NC(=O)[C@@H](CCN)NC(=O)[C@H]([C@@H](C)O)NC(=O)[C@H](CCN)NC(=O)[C@H](CCCNC(=N)N)NC(=O)[C@H](CC(N)=O)NC(=O)[C@@H](NC(=O)[C@H](Cc2ccc(O)cc2)NC(=O)[C@@H](NC(=O)[C@@H](NC(=O)[C@@H]2C[C@@H](N)CN2C(=O)[C@@H](N)C(C)C)[C@@H](C)CC)[C@@H](C)O)C(C)(C)SSC[C@@H](C(=O)N[C@@H](CCN)C(=O)N[C@H](C(=O)N[C@@H](Cc2ccc(O)cc2)C(=O)O)[C@@H](C)O)NC1=O` [Example 117, Val-Pro((4R)NH2)-Ile-Thr-Tyr-Pen-Asn-Arg-Dab-Thr-^DDab-Ile-Cys-Dab-Thr-Tyr] (HELM PEPTIDE1{V.[N[C@@H]1C[C@@H](C(=O)[*:2])N([*:1])C1].I.T.Y.[Pen].N.R.[Dab].T.[NCC[C@@H](N[*:1])C(=O)[*:2]].I.C.[Dab].T.Y}$PEPTIDE1,PEPTIDE1,6:R3-13:R3$$$V2.0): the “Escherichia coli ATCC 25922 MIC” value in series [1] was determined as 0.125 µg/mL. Besides, the “Klebsiella pneumoniae SSI3010 MIC” value in series [2] amounted to 0.25 µg/mL. Besides, the “Escherichia coli MCR-1 Af 45 MIC” value in series [3] came out at 0.125 µg/mL. The “Hemolysis at 0.2 g/L” value in series [4] is on record as less than 1%.
